Laboratory results reported in paper PMC11845477, “Exploring the principles behind antibiotics with limited resistance” (Nature Communications, 2025).

Tests used:
[1] = system: P. aeruginosa ATCC BAA-3107 (SEN) and P. aeruginosa LESB58 (MDR); assay: Frequency-of-resistance (FoR) assay, relative MIC of mutants; type: cell-based, Pseudomonas aeruginosa; conditions: P. aeruginosa ATCC BAA 3107 (PA-SEN)
Procedure: The susceptibility of antibiotics to resistance development was evaluated in two strains of each bacterial species: a multidrug-resistant strain and an antibiotic-sensitive strain of Escherichia coli, Klebsiella pneumoniae, Acinetobacter baumannii, and Pseudomonas aeruginosa. To explore first-step resistance, we previously used a standard protocol for spontaneous frequency-of-resistance analysis (FoR assay) at multiple concentrations of each antibiotic[10],[28],[31]–[33]. […] For all other combinations, approximately 10^10 bacterial cells were exposed to one of each antibiotic on agar plates for two days at concentrations where the given strain is susceptible. We examined resistance levels by contrasting the minimum inhibitory concentration (MICs) of the mutated strains to the original wild-type bacterial strain (i.e., relative MIC).
To estimate the frequency of spontaneous mutations that confer resistance in a microbial population, we conducted a frequency of resistance (FoR) assay following established protocols[10],[31]–[33]. […] Prior to plating, bacteria were grown overnight in MHB medium at 37 °C and 250 RPM, then centrifuged and washed in MHB. All experiments were performed in triplicate, and plates were incubated at 37 °C for 48 hours. Total colony-forming units (CFUs) were determined by plating appropriate dilutions onto antibiotic-free MHB agar. Resistance frequencies were calculated by dividing the number of resistant colonies by the initial viable cell count. From the plates with the highest antibiotic concentration, ten colonies were selected for MIC determination and whole-genome sequencing.
(§1) A robotic liquid handling system was used to automatically prepare a 11 to 16-step serial dilution in 384-well microtiter plates (Greiner). A final concentration of 5 × 10^5 bacterial cells per mL were inoculated into each well containing 60 µL MHB medium. Bacterial cultures were incubated at 37 °C with continuous shaking (Infors shaker, 900 rpm with 3 mm throw) for 18 hours (2 replicates from each). Cell growth was monitored by measuring the optical density (OD600 values, using Biotek Synergy microplate reader). MIC was defined as the antibiotic concentration of complete growth inhibition (i.e., OD600 < 0.05). Relative MIC was calculated as follows:1 relativeMIC=MICevolved/MICancestor […]
Supplementary Figure 3. Resistance levels following the frequency of resistance assay across bacterial strains. The level of resistance was measured as the fold change in relative MIC between evolved and ancestral strains. Data are grouped by bacterial strain (A. baumannii (AB), E. coli (EC), K. pneumoniae (KP), and P. aeruginosa (PA)) and categorized as either multidrug-resistant (MDR) or sensitive (SEN). Each data point represents a laboratory evolved line, and boxplots show the median, first and third quartiles, with whiskers indicating the 5th and 95th percentiles. […]
analysis was performed using two-sided Dunn’s post-hoc test with Benjamini-Hochberg correction for multiple comparisons (**/ * indicates p < 0.01/ 0.05). For detailed information on antibiotic and bacterial species, see Supplementary Table 1. For mode of action groups, refer to Table 1. Source data are provided as a Source Data file.

[2] = system: P. aeruginosa ATCC BAA-3107 (SEN) and P. aeruginosa LESB58 (MDR); assay: Adaptive laboratory evolution (ALE), relative MIC of evolved lines; type: cell-based, Pseudomonas aeruginosa; conditions: for Relative MIC (log10): PA-SEN (Pseudomonas aeruginosa ATCC BAA 3107)
From the text: Using the same set of bacterial strains, we initiated adaptive laboratory evolution with the aim to maximize the level of antibiotic resistance in the populations achieved during a longer, but fixed time period.
An established protocol for adaptive laboratory evolution[46],[73] was followed to propagate populations with the highest resistance levels. Starting with an antibiotic concentration that caused approximately 50% growth inhibition, ten parallel populations for each antibiotic-ancestor strain combination were grown for 72 hours at 37 °C with continuous shaking (300 RPM). MHB broth medium was used unless stated otherwise. After each incubation, 20 µl of each culture was transferred to four new wells containing fresh medium with increasing antibiotic concentrations (0.5×, 1×, 1.5×, and 2.5× the previous concentration) in a chessboard layout to monitor potential cross-contamination. Growth was monitored by measuring OD600 using a Biotek Synergy 2 microplate reader, and only populations grown in the highest drug concentration with an OD600 > 0.2 were transferred further.
as §1
Supplementary Figure 4. Resistance levels following adaptive laboratory evolution across bacterial strains. The level of resistance was measured as the fold change in relative MIC between evolved and ancestral strains after ~60 days of adaptive laboratory evolution. Data are grouped by bacterial strain (A. baumannii (AB), E. coli (EC), K. pneumoniae (KP), and P. aeruginosa (PA)) and categorized as either multidrug-resistant (MDR) or sensitive (SEN). Each data point represents a laboratory evolved line, and boxplots show the median, first and third quartiles, with whiskers indicating the 5th and 95th percentiles.
Statistical analysis was performed using two-sided Dunn’s post-hoc test with Benjamini-Hochberg correction for multiple comparisons (****/ ***/ **/ * indicates p < 0.0001/ 0.001/ 0.01/ 0.05). For detailed information on antibiotic and bacterial species, see Supplementary Table 1. For mode of action groups, refer to Table 1. Source data are provided as a Source Data file.

`C[C@H]1c2cccc(O)c2C(=O)C2=C(O)[C@]3(O)C(=O)C(C(N)=O)=C(O)[C@@H](N(C)C)[C@@H]3[C@@H](O)[C@@H]21` [Doxycycline] was tested, and the “Relative MIC” value ([1]; evolved line 1, evolved vs ancestor) was 32, the “Relative MIC” value ([1]; evolved line 2, evolved vs ancestor) was 32 and the “Relative MIC” value ([1]; evolved line 3, evolved vs ancestor) was 32. The “Relative MIC” value ([2]; PA-SEN (ATCC BAA 3107), evolved line 1, MIC of evolved line / MIC of ancestor) was 64, the MIC of evolved line ([2]; PA-SEN (ATCC BAA 3107), evolved line 2) was 256 µg/mL and the “Relative MIC” value ([2]; PA-SEN (ATCC BAA 3107), evolved line 2, MIC of evolved line / MIC of ancestor) was 64. The MIC of evolved line ([2]; PA-SEN (ATCC BAA 3107), evolved line 3) was 256 µg/mL, the “Relative MIC” value ([2]; PA-SEN (ATCC BAA 3107), evolved line 3, MIC of evolved line / MIC of ancestor) was 64 and the MIC of evolved line ([2]; PA-SEN (ATCC BAA 3107), evolved line 4) was 256 µg/mL. The “Relative MIC” value ([2]; PA-SEN (ATCC BAA 3107), evolved line 4, MIC of evolved line / MIC of ancestor) was 64, the MIC of evolved line ([2]; PA-SEN (ATCC BAA 3107), evolved line 5) was 256 µg/mL and the “Relative MIC” value ([2]; PA-SEN (ATCC BAA 3107), evolved line 5, MIC of evolved line / MIC of ancestor) was 64. The MIC of evolved line ([2]; PA-SEN (ATCC BAA 3107), evolved line 6) was 256 µg/mL, the “Relative MIC” value ([2]; PA-SEN (ATCC BAA 3107), evolved line 6, MIC of evolved line / MIC of ancestor) was 64 and the MIC of evolved line ([2]; PA-SEN (ATCC BAA 3107), evolved line 7) was 256 µg/mL. The “Relative MIC” value ([2]; PA-SEN (ATCC BAA 3107), evolved line 7, MIC of evolved line / MIC of ancestor) was 64, the MIC of evolved line ([2]; PA-SEN (ATCC BAA 3107), evolved line 8) was 256 µg/mL and the “Relative MIC” value ([2]; PA-SEN (ATCC BAA 3107), evolved line 8, MIC of evolved line / MIC of ancestor) was 64. The MIC of evolved line ([2]; PA-SEN (ATCC BAA 3107), evolved line 9) was 256 µg/mL, the “Relative MIC” value ([2]; PA-SEN (ATCC BAA 3107), evolved line 9, MIC of evolved line / MIC of ancestor) was 64 and the MIC of evolved line ([2]; PA-SEN (ATCC BAA 3107), evolved line 10) was 256 µg/mL. For the same molecule, the “Relative MIC” value ([2]; PA-SEN (ATCC BAA 3107), evolved line 10, MIC of evolved line / MIC of ancestor) was 64, the “Relative MIC (log10)” value ([2]; evolved line 1 adapted to the named antibiotic) was 1.806 and the “Relative MIC (log10)” value ([2]; evolved line 3 adapted to the named antibiotic) was 1.806. For the same molecule, the “Relative MIC (log10)” value ([2]; evolved line 5 adapted to the named antibiotic) was 1.806, the “Relative MIC (log10)” value ([2]; evolved line 7 adapted to the named antibiotic) was 1.806 and the “Relative MIC (log10)” value ([2]; evolved line 9 adapted to the named antibiotic) was 1.806. For the same molecule, the MIC of evolved line ([2]; PA-SEN ATCC BAA 3107, evolved line 1) was 256 µg/mL, the “Relative MIC” value ([2]; Pseudomonas aeruginosa ATCC BAA 3107 (PA-SEN), evolved line 1) was 64 and the “Relative MIC” value ([2]; Pseudomonas aeruginosa ATCC BAA 3107 (PA-SEN), evolved line 2) was 64. The “Relative MIC” value ([2]; Pseudomonas aeruginosa ATCC BAA 3107 (PA-SEN), evolved line 3) was 64, the “Relative MIC” value ([2]; Pseudomonas aeruginosa ATCC BAA 3107 (PA-SEN), evolved line 4) was 64 and the “Relative MIC” value ([2]; Pseudomonas aeruginosa ATCC BAA 3107 (PA-SEN), evolved line 5) was 64. The “Relative MIC” value ([2]; Pseudomonas aeruginosa ATCC BAA 3107 (PA-SEN), evolved line 6) was 64, the “Relative MIC” value ([2]; Pseudomonas aeruginosa ATCC BAA 3107 (PA-SEN), evolved line 7) was 64 and the “Relative MIC” value ([2]; Pseudomonas aeruginosa ATCC BAA 3107 (PA-SEN), evolved line 8) was 64. For the same molecule, the “Relative MIC” value ([2]; Pseudomonas aeruginosa ATCC BAA 3107 (PA-SEN), evolved line 9) was 64 and the “Relative MIC” value ([2]; Pseudomonas aeruginosa ATCC BAA 3107 (PA-SEN), evolved line 10) was 64.
